Source: patent publication US10562842B2, “Use of polyaminoisoprenyl derivatives in antibiotic or antiseptic treatment” (UNIVERSITE D'AIX-MARSEILLE, priority 2011, dated 2020)
Peptide text beside a SMILES is read from it. * marks the point of attachment. βNA = c1ccc2cc(N*)ccc2c1

How the values were obtained:
Ea289 = test: MIC by broth dilution (intrinsic MIC); format: cell-based, Enterobacter aerogenes; conditions: antibiotic alone
Protocol: (§1) Susceptibilities to antibiotics and compounds were determined in microplates by broth dilution method, as previously described. Minimal Inhibitory Concentrations (MICs) were determined with an inoculum of 10^6 CFU in 200 μL of MH broth containing two-fold serial dilutions of each drug. […] All MIC determinations were repeated at least three times in independent experiments.

Ea294 = test: MIC by broth dilution (intrinsic MIC); format: cell-based, Enterobacter aerogenes; conditions: antibiotic alone
Protocol: as §1

BN10055ΔacrB [1] = test: MIC by broth dilution (intrinsic MIC); format: cell-based, Salmonella enterica; conditions: antibiotic alone
Protocol: as §1

BN10055 = test: MIC by broth dilution (intrinsic MIC); format: cell-based, Salmonella enterica; conditions: antibiotic alone
Protocol: as §1

[2] = Tolerance in mice, intraperitoneal route; format: in vivo; conditions: for tissue anomaly (liver, lung, kidney, intestine): day 2, Compound 5 8.8 mg/kg, 8 1.46 mg/kg, 11 0.45 mg/kg, 14 0.35 mg/kg, 12 6.3 mg/kg
Protocol: Mice were administered with increasing doses of test compounds by intraperitoneal route.
The mice were sacrificed on day 2 after the injection of the test compound and autopsied. No morphological anomaly was observed. Liver, lung, kidney and intestine of each mouse were fixed and analysed.

[3] = system: Enterobacter aerogenes MDR Ea289; test: MIC of antibiotics ± test compound (MIC ratio), micro-broth dilution; format: cell-based; conditions: for Effective concentration (mM) for a MIC ratio of chloramphenicol ≥ 8 on Ea289 / MIC ratio (*) on Ea289 Chl: chloramphenicol
Protocol: The process consists of treating the MDR bacteria with the compounds of the invention in the presence of antibiotics.
as §1
The MICs of chloramphenicol±test compounds (MIC/4) were determined by the micro-broth dilution method (9). All MIC determinations were repeated at least three times in independent experiments. The MIC ratio corresponds to the ratio of the MIC of an antibiotic alone to the MIC of the same antibiotic in the presence of the tested compound (at MIC/4).
The compounds listed in Table 2 were tested for their ability to decrease the chloramphenicol MIC of Ea289, an Enterobacter aerogenes MDR strain (1). Each compound was first tested at MIC/4. […] All MIC determinations were repeated at least three times in independent experiments.
(§2) For reminder, the MIC ratio corresponds to the ratio of the MIC of the assessed antibiotic alone to the MIC of the same antibiotic in the presence of the tested compound (at MIC/4).

[4] = system: Salmonella Thyphimurium MDR BN10055; test: as above; format: cell-based, Salmonella enterica serovar Typhimurium; conditions: compound at MIC/4; for MIC ratio (*) on BN10055 Chl: chloramphenicol; for MIC ratio (*) on BN10055 Dox: doxycycline; for MIC ratio (*) on BN10055 Nal: nalidixic acid
Protocol: (§3) The Enterobacter aerogenes Ea289 strain is a Kans derivative of the MDR clinical isolate Ea27, the acrB mutant, EaEP294, was constructed from Ea289. Multidrug-resistant Salmonella enterica serovar Typhimurium DT104 strains (BN10055) was isolated from cattle in France, the isogenic acrB derivative mutant, BN10055ΔacrB, was constructed from BN10055. Strains were maintained at −80° C. in 25% (v/v) glycerol for cryoprotection. Bacteria were routinely grown in Mueller-Hinton (MH) broth at 37° C.
as §1
(§4) […] All MIC determinations were repeated at least three times in independent experiments. The MIC ratio corresponds to the ratio of the MIC of an antibiotic alone to the MIC of the same antibiotic in the presence of the tested compound (at MIC/4).
as §2

BN10055ΔacrB [5] = test: as above; format: cell-based, Salmonella enterica serovar Typhimurium; conditions: compound at MIC/4, Set 1
Protocol: as §3, §1, §4, §2

Ea289ΔacrB (Ea294) = test: as above; format: cell-based, Enterobacter aerogenes; conditions: compound at MIC/4, Set 1
Protocol: as §3, §1, §4, §2

[6] = system: Enterobacter aerogenes MDR Ea289; test: as above; format: cell-based; conditions: compound at MIC/4, Set 2; for MIC ratio (*) on Ea289 Dox: doxycycline; for MIC ratio (*) on Ea289 Nal: nalidixic acid
CHO cells = test: Toxicity on CHO cultured cells; format: cell-based; conditions: killing of 50% of the CHO cells after 24 hours of incubation
Protocol: The toxicity of each compound was determined on CHO cultured cells. Incubation of CHO cells was performed with serial dilution of compounds. The compounds are either solubilized in DMSO or in PBS. The IC50 corresponds to the concentration of compounds leading to a killing of 50% of the CHO cells after 24 hours of incubation.

[7] = system: S. enterica Thyphimurium ATCC13311; test: Susceptibility of Gram-negative strains to macrolides in the presence of test compound; format: cell-based, Salmonella enterica Typhimurium; set-up: key to the marks not given beside the values
E. aerogenes ATCC13048 = test: as above; format: cell-based, Enterobacter aerogenes
A. Baumannii ATCC19606 = test: as above; format: cell-based, Acinetobacter baumannii; set-up: Susceptibility to Clarithomycin, A. Baumannii ATCC19606: key to the marks not given beside the values
E. Coli AG100 = test: as above; format: cell-based, Escherichia coli; set-up: Susceptibility to Clarithomycin, E. Coli AG100 / Susceptibility to Erythromycin, E. Coli AG100: key to the marks not given beside the values

O=C(N[C@H](CO)[C@H](O)c1ccc([N+](=O)[O-])cc1)C(Cl)Cl [Chloramphenicol, reference compound]
Chl-MIC: Chloramphenicol Minimal Inhibitory Concentration, Ea289 (Ea289): 1024 µg/mL | Chl-MIC: Chloramphenicol Minimal Inhibitory Concentration, Ea294 (Ea294): 64 µg/mL | Chl-MIC: Chloramphenicol Minimal Inhibitory Concentration, BN10055ΔacrB (BN10055ΔacrB [1]): 16 µg/mL | Chl-MIC: Chloramphenicol Minimal Inhibitory Concentration, BN10055 (BN10055): 256 µg/mL

CC(C)=CCC/C(C)=C/C(=O)NCCCN(CCCN)CCCN [Compound 5]
tissue observation at the highest dose ([2]; 35.25 mg/kg): slight vascular modifications | tissue anomaly (liver, lung, kidney, intestine) [2]: no significant tissue anomaly

CC(C)=CCC/C(C)=C/CC/C(C)=C/CNCCCNCCCCNCCCN [Compound 8, {3-[4-(3-Amino-propylamino)-butylamino]-propyl}-(3,7,11-trimethyl-dodeca-2,6,10-trienyl)-amine]
Effective concentration (mM) for a MIC ratio of chloramphenicol ≥ 8 on Ea289 [3]: 0.0078 mM | efficient concentration, times lower than the control PAβN ([3]; chloramphenicol MIC ratio of 8 on Ea289): about 4.9 times | activity, effective concentration compared with PAβN to reach a MIC ratio of 8 ([3]; chloramphenicol on Ea289): strong activity | MIC ratio (*) on Ea289 Chl ([3]; compound at MIC/4, Set 1): 8-16 | MIC ratio (*) on Ea289 Chl ([3]; compound at MIC/4, Set 2): 8-16 | MIC ratio(*) on Ea289 Ery ([3]; erythromycin, compound at MIC/4, Set 1): 32 | MIC ratio (*) on Ea289 Nal ([3]; nalidixic acid, compound at MIC/4, Set 1): >16 | MIC ratio (*) on BN10055 Chl ([4]; Set 1): >16 | MIC ratio (*) on BN10055 Chl ([4]; Set 2): 16-32 | MIC ratio (*) on BN10055 Dox ([4]; Set 2): 8 | MIC ratio(*) on BN10055 Ery ([4]; erythromycin, Set 1): 8 | MIC ratio (*) on BN10055 Nal ([4]; Set 1): 64 | MIC ratio (*) on BN10055 Nal ([4]; Set 2): 64 | MIC ratio(*) on BN10055ΔacrB Chl (BN10055ΔacrB [5]; chloramphenicol): 4 | MIC ratio(*) on BN10055ΔacrB Ery (BN10055ΔacrB [5]; erythromycin): 8 | MIC ratio(*) on BN10055ΔacrB Nal (BN10055ΔacrB [5]; nalidixic acid): 4 | tissue anomaly (liver, lung, kidney, intestine) [2]: no significant tissue anomaly | MIC ratio(*) on Ea289ΔacrB Chl (Ea289ΔacrB (Ea294); chloramphenicol): 2 | MIC ratio(*) on Ea289ΔacrB Ery (Ea289ΔacrB (Ea294); erythromycin): 16 | MIC ratio(*) on Ea289ΔacrB Nal (Ea289ΔacrB (Ea294); nalidixic acid): 4 | MIC ratio (*) on Ea289 Dox [6]: 16 | MIC ratio (*) on Ea289 Nal [6]: 16-32 | IC50 (CHO cells; Cricetulus griseus): 0.726 mM

CC(C)=CCC/C(C)=C/CNCCCN [Compound 12, (3,7-Dimethyl-octa-2,6-dienyl)-propane-1,3-diamine]
MIC ratio (*) on Ea289 Chl ([3]; compound at MIC/4, Set 2): 16 | MIC ratio (*) on BN10055 Chl ([4]; Set 2): 8 | MIC ratio (*) on BN10055 Dox ([4]; Set 2): 16 | MIC ratio (*) on BN10055 Nal ([4]; Set 2): 32 | tissue anomaly (liver, lung, kidney, intestine) [2]: no significant tissue anomaly | MIC ratio (*) on Ea289 Dox [6]: 16 | MIC ratio (*) on Ea289 Nal [6]: 4-8

N=C(N)NCCC[C@H](NC(=O)[C@@H](N)Cc1ccccc1)C(=O)Nc1ccc2ccccc2c1 [PAβN, Phenyl-Arginine β-Naphtylamide] (H-Phe-Arg-βNA)
Effective concentration (mM) for a MIC ratio of chloramphenicol ≥ 8 on Ea289 [3]: 0.038 mM | Susceptibility to Clarithomycin, S. enterica Thyphimurium ATCC13311 [7]: ++ | Susceptibility to Erythromycin, S. enterica Thyphimurium ATCC13311 [7]: ++ | Susceptibility to Spiramycin, S. enterica Thyphimurium ATCC13311 [7]: ++ | Susceptibility to Clarithomycin, E. aerogenes ATCC13048 (E. aerogenes ATCC13048): + | Susceptibility to Erythromycin, E. aerogenes ATCC13048 (E. aerogenes ATCC13048): + | Susceptibility to Spiramycin, E. aerogenes ATCC13048 (E. aerogenes ATCC13048): + | Susceptibility to Clarithomycin, A. Baumannii ATCC19606 (A. Baumannii ATCC19606): ++ | Susceptibility to Erythromycin, A. Baumannii ATCC19606 (A. Baumannii ATCC19606): + | Susceptibility to Spiramycin, A. Baumannii ATCC19606 (A. Baumannii ATCC19606): + | Susceptibility to Clarithomycin, E. Coli AG100 (E. Coli AG100): ++ | Susceptibility to Erythromycin, E. Coli AG100 (E. Coli AG100): ++ | Susceptibility to Spiramycin, E. Coli AG100 (E. Coli AG100): + | IC50 (CHO cells): > 5 mM
